Test results from patent US6358885B1, “Substituted phenylheterocyclic herbicides” (Mississippi State University, priority 1992, dated 2002).

Tests used:
Experiment in all cases: Test G preemergence/postemergence greenhouse plant response rating 0 to 100
bermudagrass = type: in vivo, Cynodon dactylon; conditions: 0 to 100 scale
Outline: (§1)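 Greenhouse pots, one species each; non-phytotoxic solvent vehicle. Read-out: visual injury vs untreated, 13–21 DAT. Dash denotes no result.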

peanut = type: in vivo, Arachis hypoagaea; conditions: 0 to 100 scale
Outline: as §1

sandbur = type: in vivo, Cenchrus echinatus; conditions: 0 to 100 scale
Outline: as §1

alfalfa = type: in vivo, Medicago ativa; conditions: 0 to 100 scale
Outline: as §1

smooth crabgrass = type: in vivo, Digitaria ischaemum; conditions: 0 to 100 scale
Outline: as §1

yellow nutsedge = type: in vivo, Cyperus esculentus; conditions: Rate 125 g/ha, 0 to 100 scale
Outline: as §1

large crabgrass = type: in vivo, Digitaria sanguinalis; conditions: 0 to 100 scale
Outline: as §1

common ragweed = type: in vivo, Ambrosia elatior; conditions: 0 to 100 scale
Outline: as §1

common purslane = type: in vivo, Portulaca oleracea; conditions: 0 to 100 scale
Outline: as §1

purple nutsedge = type: in vivo, Cyperus rotundus; conditions: Rate 125 g/ha, 0 to 100 scale
Outline: as §1

guineagrass = type: in vivo, Panicum maximum; conditions: 0 to 100 scale
Outline: as §1

johnsongrass = type: in vivo, Sorghum halepense; conditions: 0 to 100 scale
Outline: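 Scoring: visual injury at 13 to 21 days post-application, compared with untreated controls. Planting: one species per pot in greenhouse medium. Dosing: compound in non-phytotoxic solvent, within one day of sowing for preemergence or at 2–4 leaves for postemergence.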

annual bluegrass = type: in vivo, Poa annua; conditions: 0 to 100 scale
Outline: as §1

dallisgrass = type: in vivo, Paspalum dilatatum; conditions: 0 to 100 scale
Outline: as §1

goosegrass = type: in vivo, Eleusine indica; conditions: 0 to 100 scale
Outline: as §1

pitted morningglory = type: in vivo, Ipomoea lacunosa; conditions: 0 to 100 scale
Outline: as §1

itchgrass = type: in vivo, Rottboellia exaltata; conditions: 0 to 100 scale
Outline: as §1

CC(C)COc1cc(-c2nn3c(c2Cl)CCCC3)c(F)cc1Cl [Compound 30]
30: Plant response rating, Goosegrass (goosegrass; PREEMERGENCE, Rate 250 g/ha)
40: Plant response rating, Cmn Ragweed (common ragweed; POSTEMERGENCE, Rate 125 g/ha)
0: Plant response rating, Bermudagrass (bermudagrass; POSTEMERGENCE, Rate 125 g/ha) | Plant response rating, Bermudagrass (bermudagrass; POSTEMERGENCE, Rate 250 g/ha) | Plant response rating, Bermudagrass (bermudagrass; PREEMERGENCE, Rate 125 g/ha) | Plant response rating, Bermudagrass (bermudagrass; PREEMERGENCE, Rate 250 g/ha) | Plant response rating, Peanuts (peanut; POSTEMERGENCE, Rate 125 g/ha) | Plant response rating, Peanuts (peanut; POSTEMERGENCE, Rate 250 g/ha) | Plant response rating, Peanuts (peanut; PREEMERGENCE, Rate 125 g/ha) | Plant response rating, Peanuts (peanut; PREEMERGENCE, Rate 250 g/ha) | Plant response rating, S. Sandbur (sandbur; POSTEMERGENCE, Rate 125 g/ha) | Plant response rating, S. Sandbur (sandbur; POSTEMERGENCE, Rate 250 g/ha) | Plant response rating, S. Sandbur (sandbur; PREEMERGENCE, Rate 125 g/ha) | Plant response rating, S. Sandbur (sandbur; PREEMERGENCE, Rate 250 g/ha) | Plant response rating, Alfalfa Var. (alfalfa; POSTEMERGENCE, Rate 125 g/ha) | Plant response rating, Alfalfa Var. (alfalfa; POSTEMERGENCE, Rate 250 g/ha) | Plant response rating, Alfalfa Var. (alfalfa; PREEMERGENCE, Rate 125 g/ha) | Plant response rating, Alfalfa Var. (alfalfa; PREEMERGENCE, Rate 250 g/ha) | Plant response rating, Smooth Crabgras (smooth crabgrass; POSTEMERGENCE, Rate 125 g/ha) | Plant response rating, Smooth Crabgras (smooth crabgrass; POSTEMERGENCE, Rate 250 g/ha) | Plant response rating, Smooth Crabgras (smooth crabgrass; PREEMERGENCE, Rate 125 g/ha) | Plant response rating, Smooth Crabgras (smooth crabgrass; PREEMERGENCE, Rate 250 g/ha) | Plant response rating, Yellow Nutsedge (yellow nutsedge; POSTEMERGENCE) | Plant response rating, Yellow Nutsedge (yellow nutsedge; PREEMERGENCE) | Plant response rating, Large Crabgrass (large crabgrass; POSTEMERGENCE, Rate 125 g/ha) | Plant response rating, Large Crabgrass (large crabgrass; POSTEMERGENCE, Rate 250 g/ha) | Plant response rating, Large Crabgrass (large crabgrass; PREEMERGENCE, Rate 125 g/ha) | Plant response rating, Cmn Ragweed (common ragweed; POSTEMERGENCE, Rate 250 g/ha) | Plant response rating, Cmn Ragweed (common ragweed; PREEMERGENCE, Rate 125 g/ha) | Plant response rating, Cmn Ragweed (common ragweed; PREEMERGENCE, Rate 250 g/ha) | Plant response rating, Cmn Purslane (common purslane; PREEMERGENCE, Rate 125 g/ha) | Plant response rating, Cmn Purslane (common purslane; PREEMERGENCE, Rate 250 g/ha) | Plant response rating, Purple Nutsedge (purple nutsedge; POSTEMERGENCE) | Plant response rating, Purple Nutsedge (purple nutsedge; PREEMERGENCE) | Plant response rating, Guineagrass (guineagrass; POSTEMERGENCE, Rate 125 g/ha) | Plant response rating, Guineagrass (guineagrass; POSTEMERGENCE, Rate 250 g/ha) | Plant response rating, Guineagrass (guineagrass; PREEMERGENCE, Rate 125 g/ha) | Plant response rating, Guineagrass (guineagrass; PREEMERGENCE, Rate 250 g/ha) | Plant response rating, Johnsongrass (johnsongrass; POSTEMERGENCE, Rate 125 g/ha) | Plant response rating, Johnsongrass (johnsongrass; POSTEMERGENCE, Rate 250 g/ha) | Plant response rating, Johnsongrass (johnsongrass; PREEMERGENCE, Rate 125 g/ha) | Plant response rating, Johnsongrass (johnsongrass; PREEMERGENCE, Rate 250 g/ha) | Plant response rating, Ann Bluegrass (annual bluegrass; POSTEMERGENCE, Rate 125 g/ha) | Plant response rating, Ann Bluegrass (annual bluegrass; POSTEMERGENCE, Rate 250 g/ha) | Plant response rating, Ann Bluegrass (annual bluegrass; PREEMERGENCE, Rate 125 g/ha) | Plant response rating, Ann Bluegrass (annual bluegrass; PREEMERGENCE, Rate 250 g/ha) | Plant response rating, Dallisgrass (dallisgrass; POSTEMERGENCE, Rate 125 g/ha) | Plant response rating, Dallisgrass (dallisgrass; POSTEMERGENCE, Rate 250 g/ha) | Plant response rating, Dallisgrass (dallisgrass; PREEMERGENCE, Rate 125 g/ha) | Plant response rating, Dallisgrass (dallisgrass; PREEMERGENCE, Rate 250 g/ha) | Plant response rating, Goosegrass (goosegrass; POSTEMERGENCE, Rate 125 g/ha) | Plant response rating, Goosegrass (goosegrass; POSTEMERGENCE, Rate 250 g/ha) | Plant response rating, Goosegrass (goosegrass; PREEMERGENCE, Rate 125 g/ha) | Plant response rating, Pit Morninglory (pitted morningglory; POSTEMERGENCE, Rate 125 g/ha) | Plant response rating, Pit Morninglory (pitted morningglory; PREEMERGENCE, Rate 125 g/ha) | Plant response rating, Pit Morninglory (pitted morningglory; PREEMERGENCE, Rate 250 g/ha) | Plant response rating, Itchgrass (itchgrass; POSTEMERGENCE, Rate 125 g/ha) | Plant response rating, Itchgrass (itchgrass; POSTEMERGENCE, Rate 250 g/ha) | Plant response rating, Itchgrass (itchgrass; PREEMERGENCE, Rate 125 g/ha) | Plant response rating, Itchgrass (itchgrass; PREEMERGENCE, Rate 250 g/ha)
20: Plant response rating, Pit Morninglory (pitted morningglory; POSTEMERGENCE, Rate 250 g/ha)
70: Plant response rating, Large Crabgrass (large crabgrass; PREEMERGENCE, Rate 250 g/ha) | Plant response rating, Cmn Purslane (common purslane; POSTEMERGENCE, Rate 125 g/ha)
60: Plant response rating, Cmn Purslane (common purslane; POSTEMERGENCE, Rate 250 g/ha)

CC(C)N1C(=O)COc2cc(F)c(-c3nn4c(c3Cl)CCCC4)cc21 [Compound 31]
50: Plant response rating, Pit Morninglory (pitted morningglory; POSTEMERGENCE, Rate 125 g/ha) | Plant response rating, Pit Morninglory (pitted morningglory; POSTEMERGENCE, Rate 250 g/ha)
100: Plant response rating, Cmn Ragweed (common ragweed; POSTEMERGENCE, Rate 125 g/ha) | Plant response rating, Cmn Ragweed (common ragweed; POSTEMERGENCE, Rate 250 g/ha) | Plant response rating, Cmn Purslane (common purslane; POSTEMERGENCE, Rate 125 g/ha) | Plant response rating, Cmn Purslane (common purslane; PREEMERGENCE, Rate 250 g/ha) | Plant response rating, Guineagrass (guineagrass; PREEMERGENCE, Rate 250 g/ha)
30: Plant response rating, Alfalfa Var. (alfalfa; PREEMERGENCE, Rate 250 g/ha)
0: Plant response rating, Bermudagrass (bermudagrass; POSTEMERGENCE, Rate 125 g/ha) | Plant response rating, Bermudagrass (bermudagrass; POSTEMERGENCE, Rate 250 g/ha) | Plant response rating, Bermudagrass (bermudagrass; PREEMERGENCE, Rate 125 g/ha) | Plant response rating, Bermudagrass (bermudagrass; PREEMERGENCE, Rate 250 g/ha) | Plant response rating, Peanuts (peanut; POSTEMERGENCE, Rate 125 g/ha) | Plant response rating, Peanuts (peanut; POSTEMERGENCE, Rate 250 g/ha) | Plant response rating, Peanuts (peanut; PREEMERGENCE, Rate 125 g/ha) | Plant response rating, Peanuts (peanut; PREEMERGENCE, Rate 250 g/ha) | Plant response rating, S. Sandbur (sandbur; POSTEMERGENCE, Rate 125 g/ha) | Plant response rating, S. Sandbur (sandbur; POSTEMERGENCE, Rate 250 g/ha) | Plant response rating, S. Sandbur (sandbur; PREEMERGENCE, Rate 125 g/ha) | Plant response rating, S. Sandbur (sandbur; PREEMERGENCE, Rate 250 g/ha) | Plant response rating, Alfalfa Var. (alfalfa; POSTEMERGENCE, Rate 125 g/ha) | Plant response rating, Alfalfa Var. (alfalfa; PREEMERGENCE, Rate 125 g/ha) | Plant response rating, Smooth Crabgras (smooth crabgrass; POSTEMERGENCE, Rate 125 g/ha) | Plant response rating, Smooth Crabgras (smooth crabgrass; POSTEMERGENCE, Rate 250 g/ha) | Plant response rating, Smooth Crabgras (smooth crabgrass; PREEMERGENCE, Rate 125 g/ha) | Plant response rating, Smooth Crabgras (smooth crabgrass; PREEMERGENCE, Rate 250 g/ha) | Plant response rating, Yellow Nutsedge (yellow nutsedge; POSTEMERGENCE) | Plant response rating, Yellow Nutsedge (yellow nutsedge; PREEMERGENCE) | Plant response rating, Large Crabgrass (large crabgrass; POSTEMERGENCE, Rate 125 g/ha) | Plant response rating, Large Crabgrass (large crabgrass; POSTEMERGENCE, Rate 250 g/ha) | Plant response rating, Large Crabgrass (large crabgrass; PREEMERGENCE, Rate 125 g/ha) | Plant response rating, Large Crabgrass (large crabgrass; PREEMERGENCE, Rate 250 g/ha) | Plant response rating, Cmn Ragweed (common ragweed; PREEMERGENCE, Rate 125 g/ha) | Plant response rating, Cmn Purslane (common purslane; PREEMERGENCE, Rate 125 g/ha) | Plant response rating, Purple Nutsedge (purple nutsedge; PREEMERGENCE) | Plant response rating, Guineagrass (guineagrass; POSTEMERGENCE, Rate 125 g/ha) | Plant response rating, Guineagrass (guineagrass; POSTEMERGENCE, Rate 250 g/ha) | Plant response rating, Guineagrass (guineagrass; PREEMERGENCE, Rate 125 g/ha) | Plant response rating, Johnsongrass (johnsongrass; POSTEMERGENCE, Rate 125 g/ha) | Plant response rating, Johnsongrass (johnsongrass; POSTEMERGENCE, Rate 250 g/ha) | Plant response rating, Johnsongrass (johnsongrass; PREEMERGENCE, Rate 125 g/ha) | Plant response rating, Johnsongrass (johnsongrass; PREEMERGENCE, Rate 250 g/ha) | Plant response rating, Ann Bluegrass (annual bluegrass; POSTEMERGENCE, Rate 125 g/ha) | Plant response rating, Ann Bluegrass (annual bluegrass; POSTEMERGENCE, Rate 250 g/ha) | Plant response rating, Ann Bluegrass (annual bluegrass; PREEMERGENCE, Rate 125 g/ha) | Plant response rating, Ann Bluegrass (annual bluegrass; PREEMERGENCE, Rate 250 g/ha) | Plant response rating, Dallisgrass (dallisgrass; POSTEMERGENCE, Rate 125 g/ha) | Plant response rating, Dallisgrass (dallisgrass; POSTEMERGENCE, Rate 250 g/ha) | Plant response rating, Dallisgrass (dallisgrass; PREEMERGENCE, Rate 125 g/ha) | Plant response rating, Dallisgrass (dallisgrass; PREEMERGENCE, Rate 250 g/ha) | Plant response rating, Goosegrass (goosegrass; POSTEMERGENCE, Rate 125 g/ha) | Plant response rating, Goosegrass (goosegrass; POSTEMERGENCE, Rate 250 g/ha) | Plant response rating, Goosegrass (goosegrass; PREEMERGENCE, Rate 125 g/ha) | Plant response rating, Goosegrass (goosegrass; PREEMERGENCE, Rate 250 g/ha) | Plant response rating, Pit Morninglory (pitted morningglory; PREEMERGENCE, Rate 125 g/ha) | Plant response rating, Pit Morninglory (pitted morningglory; PREEMERGENCE, Rate 250 g/ha) | Plant response rating, Itchgrass (itchgrass; POSTEMERGENCE, Rate 125 g/ha) | Plant response rating, Itchgrass (itchgrass; PREEMERGENCE, Rate 125 g/ha)
10: Plant response rating, Alfalfa Var. (alfalfa; POSTEMERGENCE, Rate 250 g/ha) | Plant response rating, Purple Nutsedge (purple nutsedge; POSTEMERGENCE)
20: Plant response rating, Itchgrass (itchgrass; POSTEMERGENCE, Rate 250 g/ha)
80: Plant response rating, Cmn Purslane (common purslane; POSTEMERGENCE, Rate 250 g/ha)
70: Plant response rating, Cmn Ragweed (common ragweed; PREEMERGENCE, Rate 250 g/ha) | Plant response rating, Itchgrass (itchgrass; PREEMERGENCE, Rate 250 g/ha)
